Source: US20110230485A1, “6-PHENYL-PYRIMIDIN-4-YL-(PHENYLAMINE OR PHENOXY) DERIVATIVES USEFUL AS MODULATORS OF NICOTINIC ACETYLCHOLINE RECEPTORS” (NEUROSEARCH A/S, priority 2008, published 2011)
pEC50: −log10 of the molar value.

Legend:
[1] = molecular target: T1, wild-type nAChR α7 receptors (Homo sapiens, UniProt P36544); assay: Positive modulation of nAChR α7 receptors expressed in Xenopus laevis oocytes, two-electrode voltage clamp; type: cell-based; conditions: oocytes clamped at −60 mV; for Emax: read-out: Imax; for pEC50: positive modulation of current induced by 100 μM acetylcholine, test compound 0.01-31.6 μM applied 30 s before and during acetylcholine
T1 construct: expressed in transfected cells; host or cells: Xenopus laevis oocytes
Procedure: In this example the positive modulation of wild-type nAChR α7 receptors by the compounds of the invention was determined using nAChR α7 receptors heterologously expressed in Xenopus laevis oocytes.
The electrical current through the nAChR α7 channel was measured using conventional two-electrode voltage clamp and nAChR α7 currents were activated by applying pulses of agonist-containing solution onto the nAChR α7 expressing oocyte.
In brief, the oocytes were placed in a recording chambers and continuously super-fused with an Oocyte Ringer (OR) solution containing 90 mM NaCl, 2.5 mM KCl, 2.5 mM CaCl2, 1 mM MgCl2 and 5 mM HEPES (pH adjusted to 7.4). The oocytes were clamped at −60 mV and currents were induced by applying 20 s pulses of 100 μM acetylcholine dissolved in OR. The intervals between the acetylcholine applications were 5 minutes, during which the oocytes were washed with OR. The first three applications were control applications to insure a constant response level of 100 μM acetylcholine. For the subsequent test applications, increasing concentrations (0.01-31.6 μM) of the test compound were applied 30 s before and during the acetylcholine (100 μM) application, which caused a robust increase in the acetylcholine-induced current amplitude.
The positive modulation in the presence of Compound was calculated as (test-control)/control×100% and the concentration response curve for this positive modulation was fitted to the sigmoidal logistic equation:
I=Imax/(1+(EC50/[compound])^n),
where Imax represents the maximal modulation of the control response, EC50 is the concentration causing a half maximal response, and n is the slope coefficient.

[2] = maximal modulation of the control response to 100 μM acetylcholine, (test-control)/control×100%

T1 sequence (P36544 23-502): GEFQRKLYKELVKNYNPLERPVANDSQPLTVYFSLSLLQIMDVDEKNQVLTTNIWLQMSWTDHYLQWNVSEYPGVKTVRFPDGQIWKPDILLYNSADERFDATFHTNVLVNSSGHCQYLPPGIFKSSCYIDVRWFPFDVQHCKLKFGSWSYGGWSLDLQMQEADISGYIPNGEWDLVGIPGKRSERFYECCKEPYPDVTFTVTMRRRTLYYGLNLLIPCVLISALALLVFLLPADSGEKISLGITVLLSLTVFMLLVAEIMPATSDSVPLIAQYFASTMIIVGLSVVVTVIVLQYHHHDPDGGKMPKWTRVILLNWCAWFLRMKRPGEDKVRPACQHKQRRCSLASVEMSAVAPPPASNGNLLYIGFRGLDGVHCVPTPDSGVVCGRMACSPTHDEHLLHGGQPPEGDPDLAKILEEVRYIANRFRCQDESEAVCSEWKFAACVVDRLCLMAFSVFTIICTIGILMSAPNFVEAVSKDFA

Row | SMILES | Emax [1, 2] | pEC50 [1] | melting point | Imax [1, 2]
1 | CSc1cccc(Nc2nc(C)nc(-c3ccc(C(F)(F)F)cc3F)c2N)c1 [Compound 1.32, 6-(2-Fluoro-4-trifluoromethyl-phenyl)-2-methyl-N*4*-(3-methylsulfanyl-phenyl)-pyrimidine-4,5-diamine] | 245% | 5.01 |  | 
2 | Nc1c(Nc2ccc(S(N)(=O)=O)cc2)ncnc1-c1ccc(C(F)(F)F)cc1F [Compound 1.8, 4-[5-Amino-6-(2-fluoro-4-trifluoromethyl-phenyl)-pyrimidin-4-ylamino]-benzenesulfonamide] | 237% | 5.17 |  | 
3 | COc1ccc(Oc2ncnc(-c3ccc(C(F)(F)F)cc3F)c2N)cc1 [Compound 2.2, 4-(2-Fluoro-4-trifluoromethyl-phenyl)-6-(4-methoxy-phenoxy)-pyrimidin-5-ylamine] | 119% | 5.18 |  | 
4 | Nc1c(Nc2ccc3c(c2)OCO3)ncnc1-c1ccc(C(F)(F)F)cc1F [Compound 1.13, N*4*-Benzo[1,3]dioxol-5-yl-6-(2-fluoro-4-trifluoromethyl-phenyl)-pyrimidine-4,5-diamine] | 848% | 4.27 |  | 
5 | Nc1c(Nc2ccc(OCC3CC3)cc2)ncnc1-c1ccc(C(F)(F)F)cc1F [Compound 1.14, N*4*-(4-Cyclopropylmethoxy-phenyl)-6-(2-fluoro-4-trifluoromethyl-phenyl)-pyrimidine-4,5-diamine] | 3% |  |  | 
6 | COc1ccc(Oc2nc(C)nc(-c3ccc(C(F)(F)F)cc3F)c2N)cc1 [Compound 2.13, 4-(2-Fluoro-4-trifluoromethyl-phenyl)-6-(4-methoxy-phenoxy)-2-methyl-pyrimidin-5-ylamine] | 42% | 5.22 |  | 
7 | O=[N+]([O-])c1c(Nc2ccc(O)cc2)ncnc1-c1ccc(C(F)(F)F)cc1F [Compound 1.2, 4-[6-(2-Fluoro-4-trifluoromethyl-phenyl)-5-nitro-pyrimidin-4-ylamino]-phenol] | 391% | 4.64 | 169 to 171.5 °C | 
8 | COc1ccc(Nc2ncnc(-c3ccc(C(F)(F)F)cc3F)c2[N+](=O)[O-])cc1 [Compound 1.1, [6-(2-Fluoro-4-trifluoromethyl-phenyl)-5-nitro-pyrimidin-4-yl]-(4-methoxy-phenyl)-amine] | 2% |  | 155.6 to 155.8 °C | 
9 | Cc1ccc(Nc2nc(C)nc(-c3ccc(C(F)(F)F)cc3F)c2N)cc1 [Compound 1.27, 6-(2-Fluoro-4-trifluoromethyl-phenyl)-2-methyl-N*4*-p-tolyl-pyrimidine-4,5-diamine] | 503% | 5.47 |  | 
10 | COc1ccc(Nc2ncnc(-c3ccc(C(F)(F)F)cc3F)c2[N+](=O)[O-])cn1 [Compound 1.5, [6-(2-Fluoro-4-trifluoromethyl-phenyl)-5-nitro-pyrimidin-4-yl]-(6-methoxy-pyridin-3-yl)-amine] | 137% | 5.18 |  | 
11 | Cc1nc(Oc2ccc3c(c2)OCO3)c(N)c(-c2ccc(C(F)(F)F)cc2F)n1 [Compound 2.9] | 35% | 6.13 |  | 
12 | COc1ccc(Nc2ncnc(-c3ccc(C(F)(F)F)cc3F)c2N)cn1 [Compound 1.6, 6-(2-Fluoro-4-trifluoromethyl-phenyl)-N*4*-(6-methoxy-rwridin-3-yl)-pyrimidine-4,5-diamine] |  |  |  | 129%
13 | COc1ccc(Nc2nc(C)nc(-c3ccc(C(F)(F)F)cc3F)c2N)c(OC)c1 [Compound 1.33, N*4*-(2,4-Dimethoxy-phenyl)-6-(2-fluoro-4-trifluoromethyl-phenyl)-2-methyl-pyrimidine-4,5-diamine] | 11% | 5.96 |  | 
14 | Nc1c(Nc2ccc3[nH]ncc3c2)ncnc1-c1ccc(C(F)(F)F)cc1F [Compound 1.12, 6-(2-Fluoro-4-trifluoromethyl-phenyl)-N*4*-(1H-indazol-5-yl)-pyrimidine-4,5-diamine] | 184% | 5.00 |  | 
15 | Nc1c(Oc2ccc(O)cc2)ncnc1-c1ccc(C(F)(F)F)cc1F [Compound 2.3] | 104% | 4.82 |  | 
16 | COc1ccc(Nc2ncnc(-c3ccc(C(F)(F)F)cc3F)c2N)cc1 [Compound 1.3, 6-(2-Fluoro-4-trifluoromethyl-phenyl)-N*4*-(4-methoxy-Phenyl)-pyrimidine-4,5-diamine] |  | 5.64 | 212.1 to 213.2 °C | 
17 | COc1cccc(Nc2nc(C)nc(-c3ccc(C(F)(F)F)cc3F)c2N)c1 [Compound 1.31, 6-(2-Fluoro-4-trifluoromethyl-phenyl)-N*4*-(3-methoxy-phenyl)-2-methyl-pyrimidine-4,5-diamine] | 193% | 5.24 |  | 
18 | Nc1c(Nc2ccc(O)nc2)ncnc1-c1ccc(C(F)(F)F)cc1F [Compound 1.11, 5-[5-Amino-6-(2-fluoro-4-trifluoromethyl-phenyl)-pyrimidin-4-ylamino]-pyridin-2-ol] | 22% |  |  | 
19 | Cc1nc(Nc2ccc3ccccc3c2)c(N)c(-c2ccc(C(F)(F)F)cc2F)n1 [Compound 1.34, 6-(2-Fluoro-4-trifluoromethyl-phenyl)-2-methyl-N*4*-naphthalen-2-v1-pyrimidine-4,5-diamine] | 148% | 5.37 |  | 
20 | COc1ccc(Oc2ncnc(-c3ccc(C(F)(F)F)cc3F)c2[N+](=O)[O-])cc1 [Compound 2.1, 4-(2-Fluoro-4-trifluoromethyl-phenyl)-6-(4-methoxy-phenoxy)-5-nitro-pyrimidine] | 19% |  |  | 
21 | Nc1c(Nc2ccc(O)cc2)ncnc1-c1ccc(C(F)(F)F)cc1F [Compound 1.4, 4-[5-Amino-6-(2-fluoro-4-trifluoromethyl-phenyl)-pyrimidin-4-ylamino]-phenol] |  |  | 194.2 to 195.7 °C | 
22 | Nc1c(Nc2ccc3[nH]ccc3c2)ncnc1-c1ccc(C(F)(F)F)cc1F [Compound 1.10, 6-(2-Fluoro-4-trifluoromethyl-phenyl)-N*4*-(1H-indol-5-yl)-pyrimidine-4,5-diamine] | 631% | 6.62 |  | 
23 | COc1ccc(Nc2nc(C)nc(-c3ccc(C(F)(F)F)cc3F)c2N)cc1 [Compound 1.16, 6-(2-Fluoro-4-trifluoromethyl-phenyl)-N*4*-(4-methoxy-phenyl)-2-methyl-pyrimidine-4,5-diamine] | 495% | 5.31 |  | 
24 | O=[N+]([O-])c1c(Nc2ccc3[nH]ccc3c2)ncnc1-c1ccc(C(F)(F)F)cc1F [Compound 1.9, [6-(2-Fluoro-4-trifluoromethyl-phenyl)-5-nitro-pyrimidin-4-yl]-(1H-indol-5-yl)-amine] | 527% | 5.16 |  | 
25 | Cc1nc(Nc2ccc3c(c2)OCCO3)c(N)c(-c2ccc(C(F)(F)F)cc2F)n1 [Compound 1.29, N*4*-(2,3-Dihydro-benzo[1,4 dioxin-6-yl)-6-(2-fluoro-4-trifluoromethyl-phenyl)-2-methyl-pyrimidine-4,5-diamine] | 297% | 5.03 |  | 
